Assay: blood pool retention time in rodents, against […]
Format: in vivo
From the text: Retention time in the chart below is reported as the blood pool half life, T 1/2 (minutes) for half of the composition to be depleted from the blood pool.

With `CNC[C@H](O)[C@@H](O)[C@H](O)[C@H](O)CO.CNC[C@H](O)[C@@H](O)[C@H](O)[C@H](O)CO.O=C([O-])CN(CCN(CC(=O)[O-])CC(=O)O)CCN(CC(=O)[O-])CC(=O)O.[Gd+3]` [Magnevist] the “Blood Pool T1/2 (blood pool half life, for half of the composition to be depleted from the blood pool)” value was 12 min.
